Source: US9045507B2, “Coumarin-based amino acids for use in enzyme activity and substrate specificity assays” (UNIVERSITY OF SOUTHERN CALIFORNIA, priority 2005, dated 2015)
Where a SMILES comes first, the peptide text is derived from it. [ ]: non-standard residue; d: D form. pY = N[C@@H](Cc1ccc(OP(=O)(O)O)cc1)C(=O)O

Key:
Type in all cases: biochemical
[1] = biological target: T1, Protein tyrosine phosphatase from Yersinia enterocolitica (YOP) (Yersinia enterocolitica, UniProt P15273); test: Enzyme activity assay: PTP-catalyzed hydrolysis of substrates by YOP; conditions: pH 7.1, room temperature; for Km: read-out: Km (best fit to the Michaelis-Menten equation)
T1 construct: purchased Calbiochem
Source text: (§1) Protein tyrosine phosphatase from Yersinia enterocolitica (YOP)^16 and human T-cell PTP (TCPTP)^17 were obtained from Calbiochem in purified form and used as received. Reagents for solid phase peptide synthesis including Fmoc protected amino acids and Rink Amide resin were obtained from Novabiochem and used without further purification. Trichloroethanol (TCE), resorcinol, dicyclohexylcarbodiimide (DCC) and N,N-dimethylaminopyridine (DMAP) were obtained from Lancaster, isopropenyl chloroformate (IPCF) from Acros Organics, trifluoroacetic acid (TFA) from Oakwood Chemicals and methanesulfonic acid, diethyl chlorophosphate and zinc dust were obtained from Aldrich Chemical Company. Dry solvents were obtained from VWR and Aldrich. Fluorinated resorcinols were synthesized according to a literature procedure.^18 All of the chemicals were used as received, except zinc, which was activated prior to use by washing with 20% HCl, followed by water and acetone.
^1H, ^13C, and ^31P NMR spectra were recorded on Bruker AC 250, Bruker AC 360 and Varian 400 MHz instruments. Peptides were purified on a Varian ProStar 210 HPLC system using a preparative-scale C18 reverse-phase column. Mass spectrometric characterization was carried out using an Applied Biosystems Voyager-DE STR MALDI-TOF instrument with α-cyanohydroxycinnamic acid as the matrix. Enzyme assays with fluorogenic substrates were performed on a Molecular Devices Analyst AD multimode plate reader in fluorescence mode with an excitation filter, emission filter and dichroic mirror at 360 nm, 425 nm, and 400 nm, respectively. Enzymatic hydrolysis of the phosphotyrosine-containing peptide DADE-phpsphotyrosine-GPAA (9a) was followed by observing an increase in absorbance at 280 nm using a Varian Cary50 spectrophotometer.
Standard conditions employed to determine the kinetic constants of each substrate with YOP and TCPTP are described below. Substrates were dissolved in DMSO and diluted to the appropriate concentration in DMSO. Aliquots were taken such that each reaction had the same amount of DMSO, which never exceeded 5% of the reaction volume (usually 200 μL). The buffer used for all studies contained 50 mM HEPES, pH 7.1, 100 mM NaCl, 2 mM EDTA, 0.01% Brij 35, 1 mM dithiothreitol (DTT). Prior to each reaction, the enzyme was incubated in buffer with freshly added DTT for 10 min on ice. […] The increase in signal (absorbance or fluorescence) due to substrate hydrolysis was measured every 60 s for 30 min. […] Standard curves were prepared using authentic samples of the appropriate product, relative fluorescence or absorbance units were converted into concentration of product formed, and the resulting data was fit to the Michaelis-Menten equation, providing kinetic parameters for each substrate.

[2] = biological target: protein tyrosine kinase Csk (Homo sapiens, UniProt P41240); test: Kinase assay: MU as substrate for Csk; conditions: fluorescence decrease, ATP, pH 6.8
Procedure: Currently kinases assays are done using radioactive ATP. We envision that a highly sensitive fluorescence based assay would be more convenient. MU, an analog of CAP, was tested as a substrate for the protein tyrosine kinase Csk, to check the viability of the idea (FIG. 8). […] In addition, the fluorinated derivatives also serve as sensitive fluorescent assays for PTK activity.
Stock solutions of MU were prepared in DMSO to make 1 and 10 mM solutions. For enzymatic assays, various aliquots of each substrate and DMSO (to a total of 5 μL) were placed on a 96 well plate, incubated with 75 μL buffer (30 mM HEPES, 5 mM MgCl2, 0.01% Brij 35, pH 6.8) for 5 mins, treated with 1 μL of 10 mM ATP, followed by 20 μL of 12.8 nM Csk. The decrease in signal (fluorescence) due to substrate phosphorylation was measured every 60 s for 30 min. Each reaction was run in triplicate and the results averaged. Standard curves were prepared using authentic samples of the appropriate substrate, relative fluorescence units were converted into concentration of substrate left unreacted, and the resulting data was fit to the Michaelis-Menten equation, providing kinetic parameters for each substrate.

human T-cell PTP (TCPTP) = biological target: T2, human T-cell PTP (TCPTP) (Homo sapiens, UniProt P17706); test: Enzyme activity assay: PTP-catalyzed hydrolysis of substrates by TCPTP; conditions: pH 7.1, 30° C.
T2 construct: purchased Calbiochem
T2 sequence (P17706 1-415): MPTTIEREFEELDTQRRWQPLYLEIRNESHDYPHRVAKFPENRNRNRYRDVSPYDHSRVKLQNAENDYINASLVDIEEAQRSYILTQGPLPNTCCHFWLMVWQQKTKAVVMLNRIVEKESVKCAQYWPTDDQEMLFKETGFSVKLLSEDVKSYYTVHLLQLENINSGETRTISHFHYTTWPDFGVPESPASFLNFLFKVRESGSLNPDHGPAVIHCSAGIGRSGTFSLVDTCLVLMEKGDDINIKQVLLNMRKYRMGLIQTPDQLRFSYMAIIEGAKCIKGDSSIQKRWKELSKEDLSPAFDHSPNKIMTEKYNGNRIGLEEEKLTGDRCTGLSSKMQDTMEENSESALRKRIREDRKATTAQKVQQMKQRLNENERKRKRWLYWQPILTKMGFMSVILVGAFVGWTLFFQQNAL
Source text: as §1, with “Fluorinated resorcinols were synthesized according to a literature procedure.^18 All of the chemicals were used as received, except zinc, which was activated prior to use by washing with 20% HCl, followed by water and acetone.” left out
^1H, ^13C, and ^31P NMR spectra were recorded on Bruker AC 250, Bruker AC 360 and Varian 400 MHz instruments. […] Enzyme assays with fluorogenic substrates were performed on a Molecular Devices Analyst AD multimode plate reader in fluorescence mode with an excitation filter, emission filter and dichroic mirror at 360 nm, 425 nm, and 400 nm, respectively. Enzymatic hydrolysis of the phosphotyrosine-containing peptide DADE-phpsphotyrosine-GPAA (9a) was followed by observing an increase in absorbance at 280 nm using a Varian Cary50 spectrophotometer. […]

T1 sequence (P15273 whole entry): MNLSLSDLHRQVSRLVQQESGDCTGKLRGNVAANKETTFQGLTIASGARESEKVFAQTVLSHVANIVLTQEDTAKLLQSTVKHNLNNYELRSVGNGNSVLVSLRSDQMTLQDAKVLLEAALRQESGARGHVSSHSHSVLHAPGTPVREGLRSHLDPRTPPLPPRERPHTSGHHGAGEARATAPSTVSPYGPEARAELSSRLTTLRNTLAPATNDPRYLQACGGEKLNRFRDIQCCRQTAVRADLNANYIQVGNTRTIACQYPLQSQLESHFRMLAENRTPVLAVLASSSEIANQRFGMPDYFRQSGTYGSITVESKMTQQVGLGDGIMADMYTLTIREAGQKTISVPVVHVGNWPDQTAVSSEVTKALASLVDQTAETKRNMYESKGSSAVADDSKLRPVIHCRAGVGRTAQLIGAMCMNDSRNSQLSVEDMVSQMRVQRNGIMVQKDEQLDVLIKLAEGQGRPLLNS

| phosphorylation of substrate by Csk [2] | kcat (best fit to the Michaelis-Menten equation) (human T-cell PTP (TCPTP)) [s⁻¹] | Km (human T-cell PTP (TCPTP); read-out: Km (best fit to the Michaelis-Menten equation)) [µM] | Compound | kcat (best fit to the Michaelis-Menten equation) [1] [s⁻¹] | Km [1] [µM] |
| --- | --- | --- | --- | --- | --- |
| – | – | – | C[C@H](NC(=O)[C@H](C)NC(=O)[C@@H]1CCCN1C(=O)CNC(=O)[C@H](Cc1ccc(OP(=O)(O)O)cc1)NC(=O)[C@H](CCC(=O)O)NC(=O)[C@H](CC(=O)O)NC(=O)[C@H](C)NC(=O)[C@@H](N)CC(=O)O)C(N)=O [9a, DADE-pY-GPAA-NH2] (H-DADE[pY]GPAA-NH2) | 100 ± 20 | 2700 ± 800 |
| – | – | – | Cc1cc(=O)oc2cc(OP(=O)(O)O)ccc12 [MUP] | 5.7 ± 0.5 | 800 ± 200 |
| Csk indeed phosphorylated MU to MUP | – | – | Cc1cc(=O)oc2cc(O)ccc12 [MU, 4-methylumbelliferone] | – | – |
| – | 35 ± 10 | 800 ± 300 | DADE-pCAP-GPAA-NH2 [10a] | – | – |
